According to patent US12655104B2, “Anticancer compounds selective for ER-positive cancers” (THE BOARD OF TRUSTEES OF THE UNIVERSITY OF ILLINOIS, priority 2020, dated 2026):
Read-outs that look alike come from different tables or passages of the source.

Tests used:
T47D-ERaY537S (TYS) = assay: Alamar blue fluorescence viability (IC50), TYS; assay type: cell-based; conditions: 24 h, read-out: IC50 24 hr (μM)
Procedure: (§1) Cancer Cell Lines: Culturing Conditions and Validation. All cell lines were cultured at 37° C. with 5% CO2. All ERα-positive cell lines were grown in media lacking phenol red. MCF-7 were grown in EMEM with 10% FBS and 1% penicillin-streptomycin (P/S). T47D were cultured in MEM with 10% FBS and 1% P/S. TYS and TDG cells were grown in MEM supplemented with 10% CD-FBS and 1% P/S. HCT-116 and MDA-MB-231 cells were cultured in RPMI-1640 supplemented with 10% FBS and 1% P/S. MDA-MB-436 cells were cultured in DMEM supplemented with 10% FBS and 1% P/S. HT-29 were cultured in McCoy's media supplemented with 10% FBS and 1% P/S. All cell lines were used directly from ATCC stocks and/or have been further authenticated using PowerPlex16HS Assay (Promega) as described previously.^54 In short, >1 million cells were harvested and lysed using the cell lysis buffer (50 mM Tris, 50 mM EDTA, 25 mM sucrose, 100 mM NaCl, 1% SDS, pH 8). […]
(§2) Alamar Blue Fluorescence for Anticancer Activity (IC50). […] After 2-6 hours incubation, each well's fluorescence (λexcit.=555 nm, λemission.=585 nm) was measured using a SpectraMax M3 plate reader (Molecular Devices). Percent dead was determined by comparison to a 100% dead control: 100 μM raptinal treated cells. Dose dependent curves and IC50 were calculated using Origin Pro V10.

MCF-7 cells = assay: Alamar blue fluorescence viability (IC50), MCF-7; assay type: cell-based; conditions: Homo sapiens
CD-1 mice = assay: Maximum tolerated dose (MTD) in mice; assay type: in vivo
Description: (§3) Maximum Tolerated Dose (MTD) Experiments in Mice and Rats. […] Rodents were monitored for signs of distress, lethargy, neurotoxicity, and so forth for multiple days after compound administration. […] The MTD was defined as the maximum dose in which any acute side effects observed were tolerated and no lethality observed.

[1] = Maximum tolerated dose (MTD) in mice; assay type: in vivo; conditions: female, CD-1, in vivo, Mouse, single dose, read-out: MTD
Description: as §3

T47D-ERαD538G (TDG) = assay: Alamar blue fluorescence viability (IC50), TDG; assay type: cell-based; conditions: 24 h, read-out: IC50 24 hr (μM)
Procedure: as §1, §2

[2] = test system: anticipatory unfolded protein response (a-UPR); assay: a-UPR immunoblotting/western blot in MCF-7 cells; assay type: cell-based
Procedure: a-UPR Immunoblotting/Western Blot Procedure. 400,000 MCF-7 cells/per well were seeded into 6 or 12 well plates and allowed to adhere overnight. Media was then aspirated from each well and then fresh media with diluted test compound (0.1% DMSO concentration) was added accordingly. Cells were incubated for 4 or 6 hours, then harvested. PBS-washed cell pellets were then lysed using RIPA buffer containing phosphatase (BioVision) and protease inhibitor cocktail (Calbiochem). Protein concentrations were determined using the BCA assay (Pierce). Lysates containing 10-15 μg of protein were loaded onto 4-20% gradient gels (BioRad), and SDS-PAGE was run. Proteins were then transferred onto membrane (PDVF Millipore) and blots blocked with BSA solution (2 g in 40 mL TBST) for one hour. After blocking, primary antibody was added and incubated overnight (using manufacturer's recommended dilutions). Following overnight incubation, blots were washed with TBST (5-minute incubation for each wash, washed 3 times), then incubated with HRP-linked secondary antibody for 1 hour in TBST. Blots were washed (10-minute incubation for each wash for a total of two ten-minute washes). SuperSignal West Pico Solution was then added following manufacturer's procedures and blots imaged with ChemiDoc.
Antibodies. […]

[3] = Simulated gastric fluid (SGF) stability assay; assay type: in vitro ADME; conditions: 100 μM in SGF with pepsin, 120 min
Procedure: Simulated Gastric Fluid (SGF) Stability Assay. SGF was prepared fresh by adding 3.2 g pepsin (Sigma Aldrich P7000) to 1000 mL of SGF (Fischer Scientific 7108-16) and the pH adjusted to 1.2 using a pH meter. This SGFwith pepsin solution was then warmed to 37° C. 990 μL of warmed SGFwith pepsin was then aliquoted into multiple Eppendorf tubes, followed by 10 μL of 10 mM DMSO stock solutions of test compounds. Erythromycin (MedChemExpress HY-B0220) is a positive control for this stability assay. Samples were incubated at 37° C. for the entire experiment with vortexing every 15 minutes. At each desired time point (0, 15, 30, 60, 120 minutes), a 100 μL aliquot is removed and quenched into 50 μL of acetonitrile. Samples are stored at 4° C. until all time points are complete. Samples were then vortexed and then clarified at 3,000 RPM for 10 minutes in a 4° C. centrifuge. Supernatants were collected and compound concentrations determined by LC-MS/MS (UIUC Metabolomics Center, Urbana, IL.). Determined compound concentrations were used to calculate percent remaining compared to t=0 samples.

SMILES: O=C1Nc2c(C(F)(F)F)cccc2[C@@]1(c1ccc(O)cc1)N1CCC(F)(F)CC1 (single isomer, unassigned) [ErSO-DFP]
- IC50 (T47D-ERaY537S (TYS)): 0.007 ± 0.001 µM
- IC50 (MCF-7 cells; MCF7, 24 h, read-out: IC50 24 hr (μM)): 0.017 ± 0.002 µM
- IC50 (MCF-7 cells; MCF7, 72 h, read-out: IC50 72 hr (μM)): 0.017 ± 0.001 µM
- IC50 (MCF-7 cells; MCF7, read-out: pIC50 (converted)): 0.017 µM
- Fold Increase Rel. to ErSO (MTD) (CD-1 mice; Mouse, I.V.): 4.8
- fold increase in tolerability relative to ErSO (CD-1 mice; both mice and rats, administered intravenously): ~5 fold
- MTD ([1]; iv, I.V.): 95 mg/kg
- MTD ([1]; po, P.O.): > 200 mg/kg
- IC50 (T47D-ERαD538G (TDG)): 0.009 ± 0.001 µM
- a-UPR activation (P-AMPK, P-EIF2α, cleavage of ATF6α p90), western blot [2]: activates the a-UPR in a time- and concentration-dependent manner
- % Remaining after 120 min (SD) [3]: 13±1%
